Source: patent publication US20240368173A1, “TRICYCLIC GPR65 MODULATORS” (PATHIOS THERAPEUTICS LIMITED, priority 2021, published 2024)

target: human recombinant GPR65 (Homo sapiens, UniProt Q8IYL9); assay: Human GPR65 cAMP HTRF antagonist assay; assay type: cell-based; conditions: not given
Method in brief: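 Antagonism measured as suppression of the cAMP rise when pH is dropped to 7.2 (control wells pH 7.9) in 1321N1 cells stably carrying human GPR65. Cells in KRH with 1 mM IBMX and 200 μM EDTA saw compound 30 min, then acid stimulation 30 min; HTRF cAMP detection, normalised, 4-parameter logistic IC50.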

human recombinant GPR65, sequence (Q8IYL9 whole entry): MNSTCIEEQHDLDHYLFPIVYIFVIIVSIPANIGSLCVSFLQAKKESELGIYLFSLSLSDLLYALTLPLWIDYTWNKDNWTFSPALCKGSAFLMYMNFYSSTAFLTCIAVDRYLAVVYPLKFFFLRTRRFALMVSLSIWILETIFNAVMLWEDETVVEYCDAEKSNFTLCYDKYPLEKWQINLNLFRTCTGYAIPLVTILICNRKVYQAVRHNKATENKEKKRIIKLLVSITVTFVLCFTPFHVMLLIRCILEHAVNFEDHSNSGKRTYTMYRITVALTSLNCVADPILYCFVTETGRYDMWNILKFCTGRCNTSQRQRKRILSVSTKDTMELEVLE

SMILES	IC50
O=C(Nc1ccc(-c2ccsc2)cc1)N1[C@H]2CC[C@@H]1c1ccnc(F)c1C2 [Compound 55, (5R,8S)-1-Fluoro-N-(4-(thiophen-3-yl)phenyl)-6,7,8,9-tetrahydro-5H-5,8-epiminocyclohepta[c]pyridine-10-carboxamide]	< 500 nM
O=C(Nc1ccc(C2COC2)cc1)N1[C@H]2CC[C@@H]1c1ccnc(F)c1C2 [Compound 58, (5R,8S)-1-Fluoro-N-(4-(oxetan-3-yl)phenyl)-6,7,8,9-tetrahydro-5H-5,8-epiminocyclohepta[c]pyridine-10-carboxamide]	500 to 5000 nM
O=C(Nc1ccc(C2CC2)c(Cl)c1)N1[C@H]2CC[C@@H]1c1ccnc(F)c1C2 [Compound 59, (5R,8S)-N-(3-Chloro-4-cyclopropylphenyl)-1-fluoro-6,7,8,9-tetrahydro-5H-5,8-epiminocyclohepta[c]pyridine-10-carboxamide]	< 500 nM
CC(C)(O)c1ccc(NC(=O)N2[C@H]3CC[C@@H]2c2ccnc(F)c2C3)cc1Cl [Compound 60, (5R,8S)—N-(3-Chloro-4-(2-hydroxypropan-2-yl)phenyl)-1-fluoro-6,7,8,9-tetrahydro-5H-5,8-epiminocyclohepta[c]pyridine-10-carboxamide]	< 500 nM
O=C(Nc1cc(Cl)c(C2CC2)cc1F)N1[C@H]2CC[C@@H]1c1ccnc(F)c1C2 [Compound 63, (5R,8S)-N-(5-Chloro-4-cyclopropyl-2-fluorophenyl)-1-fluoro-6,7,8,9-tetrahydro-5H-5,8-epiminocyclohepta[c]pyridine-10-carboxamide]	< 500 nM
Cc1nnc(-c2cc(F)c(NC(=O)N3[C@H]4CC[C@@H]3c3ccnc(F)c3C4)cc2Cl)s1 [Compound 64, (5R,8S)-N-(5-Chloro-2-fluoro-4-(5-methyl-1,3,4-thiadiazol-2-yl)phenyl)-1-fluoro-6,7,8,9-tetrahydro-5H-5,8-epiminocyclohepta[c]pyridine-10-carboxamide]	< 500 nM
O=C(Nc1cc(Cl)c(-c2nnc(C(F)(F)F)s2)cc1F)N1[C@H]2CC[C@@H]1c1ccnc(F)c1C2 [Compound 65, (5R,8S)-N-(5-Chloro-2-fluoro-4-(5-(trifluoromethyl)-1,3,4-thiadiazol-2-yl)phenyl)-1-fluoro-6,7,8,9-tetrahydro-5H-5,8-epiminocyclohepta[c]pyridine-10-carboxamide]	< 500 nM
O=C(Nc1ccc(-c2nnc(C(F)(F)F)s2)cc1)N1[C@H]2CC[C@@H]1c1ccnc(F)c1C2 [Compound 66, (5R,8S)-1-Fluoro-N-(4-(5-(trifluoromethyl)-1,3,4-thiadiazol-2-yl)phenyl)-6,7,8,9-tetrahydro-5H-5,8-epiminocyclohepta[c]pyridine-10-carboxamide]	< 500 nM
O=C(Nc1cc(Cl)c(OC2CCC2)cc1F)N1[C@H]2CC[C@@H]1c1ccnc(F)c1C2 [Compound 67, (5R,8S)-N-(5-Chloro-4-cyclobutoxy-2-fluorophenyl)-1-fluoro-6,7,8,9-tetrahydro-5H-5,8-epiminocyclohepta[c]pyridine-10-carboxamide]	< 500 nM
O=C(Nc1ccc(OC2CCC2)c(Cl)c1)N1[C@H]2CC[C@@H]1c1ccnc(F)c1C2 [Compound 69, (5R,8S)-N-(3-Chloro-4-cyclobutoxyphenyl)-1-fluoro-6,7,8,9-tetrahydro-5H-5,8-epiminocyclohepta[c]pyridine-10-carboxamide]	< 500 nM
CC(C)Oc1ccc(NC(=O)N2[C@H]3CC[C@@H]2c2ccnc(F)c2C3)cc1Cl [Compound 70, (5R,8S)-N-(3-Chloro-4-isopropoxyphenyl)-1-fluoro-6,7,8,9-tetrahydro-5H-5,8-epiminocyclohepta[c]pyridine-10-carboxamide]	< 500 nM
CO[C@H]1C[C@@H](Oc2ccc(NC(=O)N3[C@H]4CC[C@@H]3c3ccnc(F)c3C4)cc2Cl)C1 [Compound 72, (5R,8S)-N-(3-Chloro-4-((1s,3S)-3-methoxycyclobutoxy)phenyl)-1-fluoro-6,7,8,9-tetrahydro-5H-5,8-epiminocyclohepta[c]pyridine-10-carboxamide]	500 to 5000 nM
CO[C@H]1C[C@H](Oc2ccc(NC(=O)N3[C@H]4CC[C@@H]3c3ccnc(F)c3C4)cc2Cl)C1 [Compound 73, (5R,8S)-N-(3-Chloro-4-((1r,3R)-3-methoxycyclobutoxy)phenyl)-1-fluoro-6,7,8,9-tetrahydro-5H-5,8-epiminocyclohepta[c]pyridine-10-carboxamide]	500 to 5000 nM
O=C(Nc1cc(Cl)c(I)cc1F)N1[C@H]2CC[C@@H]1c1ccnc(F)c1C2 [Compound 77, (5R,8S)-N-(5-Chloro-2-fluoro-4-iodophenyl)-1-fluoro-6,7,8,9-tetrahydro-5H-5,8-epiminocyclohepta[c]pyridine-10-carboxamide]	< 500 nM
O=C(Nc1cc(Cl)c(I)cc1F)N1[C@H]2CC[C@@H]1c1c[nH]c(=O)cc1C2 [Compound 79, (6S,9R)-N-(5-Chloro-2-fluoro-4-iodophenyl)-3-oxo-3,5,6,7,8,9-hexahydro-2H-6,9-epiminocyclohepta[c]pyridine-10-carboxamide]	< 500 nM
O=C(Nc1cc(I)c(Cl)cc1F)N1[C@H]2CC[C@@H]1c1c[nH]c(=O)cc1C2 [Compound 80, (6S,9R)-N-(4-Chloro-2-fluoro-5-iodophenyl)-3-oxo-3,5,6,7,8,9-hexahydro-2H-6,9-epiminocyclohepta[c]pyridine-10-carboxamide]	500 to 5000 nM
O=C(Nc1cc(Cl)c(OC2CCC2)cc1F)N1[C@H]2CC[C@@H]1c1c[nH]c(=O)cc1C2 [Compound 81, (6S,9R)-N-(5-Chloro-4-cyclobutoxy-2-fluorophenyl)-3-oxo-3,5,6,7,8,9-hexahydro-2H-6,9-epiminocyclohepta[c]pyridine-10-carboxamide]	< 500 nM
O=C(Nc1cc(Cl)c(C2CC2)cc1F)N1[C@H]2CC[C@@H]1c1c[nH]c(=O)cc1C2 [Compound 82, (6S,9R)-N-(5-Chloro-4-cyclopropyl-2-fluorophenyl)-3-oxo-3,5,6,7,8,9-hexahydro-2H-6,9-epiminocyclohepta[c]pyridine-10-carboxamide]	< 500 nM
O=C(Nc1cc(Cl)c(C(F)(F)F)cc1F)N1[C@H]2CC[C@@H]1c1ccnnc1C2 [Compound 85, (5R,8S)-N-(5-Chloro-2-fluoro-4-(trifluoromethyl)phenyl)-6,7,8,9-tetrahydro-5H-5,8-epiminocyclohepta[c]pyridazine-10-carboxamide]	< 500 nM

same assay, conditions: 1321N1-hrGPR65 cells, cAMP HTRF, assay pH 7.2; read-out: hGPR65 IC50 (Activity of selected compounds according to the invention)

SMILES	IC50
Cc1ncc(-c2ccc(NC(=O)N3[C@H]4CC[C@@H]3c3ccnc(F)c3C4)cc2)o1 [Compound 56, (5R,8S)-1-Fluoro-N-(4-(2-methyloxazol-5-yl)phenyl)-6,7,8,9-tetrahydro-5H-5,8-epiminocyclohepta[c]pyridine-10-carboxamide]	500 to 5000 nM
O=C(Nc1ccc(C2CCOCC2)cc1)N1[C@H]2CC[C@@H]1c1ccnc(F)c1C2 [Compound 57, (5R,8S)-1-Fluoro-N-(4-(tetrahydro-2H-pyran-4-yl)phenyl)-6,7,8,9-tetrahydro-5H-5,8-epiminocyclohepta[c]pyridine-10-carboxamide]	500 to 5000 nM
CC1(c2ccc(NC(=O)N3[C@H]4CC[C@@H]3c3ccnc(F)c3C4)cc2)COC1 [Compound 61, (5R,8S)-1-Fluoro-N-(4-(3-methyloxetan-3-yl)phenyl)-6,7,8,9-tetrahydro-5H-5,8-epiminocyclohepta[c]pyridine-10-carboxamide]	> 5000 nM
O=C(Nc1ccc(N2CC3CCC(C2)O3)cc1)N1[C@H]2CC[C@@H]1c1ccnc(F)c1C2 [Compound 62, (5R,8S)-N-(4-(8-Oxa-3-azabicyclo[3.2.1]octan-3-yl)phenyl)-1-fluoro-6,7,8,9-tetrahydro-5H-5,8-epiminocyclohepta[c]pyridine-10-carboxamide]	> 5000 nM
O=C(Nc1cc(Cl)c(C2(O)CC2)cc1F)N1[C@H]2CC[C@@H]1c1ccnc(F)c1C2 [Compound 68, (5R,8S)-N-(5-Chloro-2-fluoro-4-(1-hydroxycyclopropyl)phenyl)-1-fluoro-6,7,8,9-tetrahydro-5H-5,8-epiminocyclohepta[c]pyridine-10-carboxamide]	500 to 5000 nM
O=C(Nc1ccc(OC2COC2)c(Cl)c1)N1[C@H]2CC[C@@H]1c1ccnc(F)c1C2 [Compound 71, (5R,8S)-N-(3-Chloro-4-(oxetan-3-yloxy)phenyl)-1-fluoro-6,7,8,9-tetrahydro-5H-5,8-epiminocyclohepta[c]pyridine-10-carboxamide]	500 to 5000 nM
O=C(Nc1cc(I)c(Cl)cc1F)N1[C@H]2CC[C@@H]1c1ccnc(F)c1C2 [Compound 78, (5R,8S)-N-(4-Chloro-2-fluoro-5-iodophenyl)-1-fluoro-6,7,8,9-tetrahydro-5H-5,8-epiminocyclohepta[c]pyridine-10-carboxamide]	500 to 5000 nM
COc1nccc2c1C[C@@H]1CC[C@H]2N1C(=O)Nc1cc(Cl)c(Cl)cc1F [Compound 88, (5R,8S)-N-(4,5-Dichloro-2-fluorophenyl)-1-methoxy-6,7,8,9-tetrahydro-5H-5,8-epiminocyclohepta[c]pyridine-10-carboxamide]	500 to 5000 nM
O=C(Nc1cc(Cl)c(Cl)cc1F)N1[C@H]2CC[C@@H]1c1ccnc(C(F)F)c1C2 [Compound 89, (5R,8S)-N-(4,5-Dichloro-2-fluorophenyl)-1-(difluoromethyl)-6,7,8,9-tetrahydro-5H-5,8-epiminocyclohepta[c]pyridine-10-carboxamide]	500 to 5000 nM
O=C(Nc1cc(Cl)c(Cl)cc1F)N1[C@H]2CC[C@@H]1c1ncccc1C2 [Compound 90, (6S,9R)-N-(4,5-Dichloro-2-fluorophenyl)-6,7,8,9-tetrahydro-5H-6,9-epiminocyclohepta[b]pyridine-10-carboxamide]	> 5000 nM
O=C(Nc1cc(Cl)c(Cl)cc1F)N1[C@H]2CC[C@@H]1c1nccc(F)c1C2 [Compound 91, (6S,9R)-N-(4,5-dichloro-2-fluorophenyl)-4-fluoro-6,7,8,9-tetrahydro-5H-6,9-epiminocyclohepta[b]pyridine-10-carboxamide]	500 to 5000 nM
